Experimental data from patent US20210186947A1, “TOMM6-INTERACTING EXTRACTS AND COMPOUNDS FOR USE IN THE TREATMENT AND PROPHYLAXIS OF NERVOUS SYSTEM DISEASES, ATHEROSCLEROSIS, HEPATITIS B INFECTION AND HUMAN PAPILLOMA VIRUS (HPV) INFECTION” (ETH ZURICH, priority 2018, published 2021).

Assays:
PHF-tau = test: Hippocampal PHF-tau in the Tg-TauP301L model of tauopathy (AT8 antibody); type: in vivo; details: 12-month-old Tg-Tau-P301L mice treated for six months
[1] = Measurement of serum level in rats by HPLC; type: in vivo, Sprague Dawley rats
Protocol: Serum concentrations of alizarin were determined with serum isolated from the blood of male and female German shepherd dogs (age: 8-9 months) taken at different time points (0.5 h, 1 h, 2 h, 4 h, 6 h, 8 h, 24 h) after oral intake of the indicated doses for 4 weeks. In addition, serum concentrations of alizarin (Compound-1) were determined in male and female Sprague Dawley rats (body weight: 200-250 g) treated for 1 month and/or three months by oral gavage of alizarin at a once daily dose of 100 mg/kg, 50 mg/kg, 25 mg/kg and 12.5 mg/kg. Serum proteins were removed by acetonitrile precipitation, and alizarin was extracted by chloroform before separation on an HPLC-C18 column (Poroshell 120 EC-C18, 3.0×50 mm, Agilent) with an HPLC system (Agilent 1100 Series) and detection at OD245 nm. For quantitative determination of Compound-7 and Compound-10F in rat and dog serum, serum proteins were also removed by acetonitrile precipitation before HPLC analysis as detailed above and detection at OD254 nm.

[2] = test system: atherosclerotic lesions in the aorta; test: Atherosclerotic lesion area in oil red O-stained aortas of ApoE-/- mice; type: in vivo; details: 9-month-old ApoE-/- mice, 10 mg/kg/d in drinking water for 8 months
Protocol: ApoE−/− mice (Taconic Biosciences, Rensselaer, N.Y., USA) with deficiency of apolipoprotein E (ApoE−/−) due to disruption of the endogenous ApoE gene were used as a genetic model of atherosclerosis (Piedrahita et al., Proc. Natl. Acad. Sci. U.S.A., 89, 4471-4475, 1992). Atherosclerotic lesion area was determined by quantitative image analysis with oil red O-stained aortas. Total plasma cholesterol was determined by a commercial kit (Sigma). Mice were kept on a 12 h dark and 12 h light cycle, had free access to food and water, and were fed a standard rodent chow (AIN-95-based diet without vitamin E supplementation and with 7% fat and 0.15% cholesterol). For the study, we used ApoE−/− mice on a B6 (C57BL/6J) background and non-transgenic B6 control mice. Alizarin treatment (10 mg/kg/day in drinking water) was initiated at an age of 4 weeks and continued for eight months until the end of the observation period. […]
Alzheimer's Disease (AD) is the most frequent form of dementia in the elderly. […] Atherosclerotic lesion area was assessed with oil red O-stained aortas isolated from 9-month-old ApoE−/− mice (FIG. 17A). […] The aortic expression levels of neuronal marker genes of alizarin-treated ApoE−/− mice were determined compared to untreated ApoE−/− mice and untreated B6 mice without atherosclerosis (FIG. 17D,E).

mammalian cells = mammalian cells and in vivo; cited from earlier work

SMILES: O=C1c2ccccc2C(=O)c2c1ccc(O)c2O [Compound-1, 1,2-dihydroxyanthraquinone]
- hippocampal content of PHF-tau (PHF-tau): significantly decreased hippocampal content of PHF-tau
- oral bioavailability / serum concentrations after oral intake ([1]; rats): achieves therapeutic serum concentrations
- oral doses required to achieve equivalent peak serum concentrations, higher in rats compared to dogs ([1]; rats vs dogs): approximately 10 fold
- atherosclerotic lesion area, lower compared to untreated ApoE-/- mice [2]: 3.6 fold
- tumor promotion (mammalian cells): not a tumor promotor
